Source: BigSolDB 2.1

N[C@@H](Cc1ccccc1)C(=O)O
solubility (mole fraction)
Details | 288.15 K | 293.15 K | 298.15 K | 303.15 K | 308.15 K
in ethanol | 8.9e-05 | 9.96e-05 | 0.000116 | 0.000134 | 0.00016
in methanol | 0.00032 | 0.000416 | 0.000563 | 0.00065 | 0.000743
in water | 0.00219 | 0.00247 | 0.00277 | 0.00312 | 0.00348
